This is an account of results in patent publication US6780871B2, “Methods and compositions for treating addiction disorders” (Albany Medical College, priority 2001, dated 2004).

The target of test [1] is NMDA-type glutamate receptors. The conditions noted are these: literature (Popik, Chen); read-out: IC50 obtained in hippocampal neurons; cited from earlier work.
Another test has as its target T1, NR1/2B receptors (Rattus norvegicus, UniProt P35439+Q00960).
T1 construct: expressed in transfected cells; host or cells: HEK293 (ATCC CRL1573), transient transfection
The test is described as follows: whole-cell patch-clamp of transfected HEK293 cells, NR1/2B, 100 μM glutamate plus 10 μM glycine. The class given is cell-based. On the procedure: (§1) Human embryonic kidney 293 (HEK293) fibroblasts (ATCC CRL1573) were cultured in minimal essential medium supplemented with 10% fetal bovine serum and 2 mM glutamine (Life Technologies, Rockville, Md.). Cells were plated on poly-D-lysine-coated 35 mm nunc dishes, transfected by the LipofectaminePLUS method (Life Technologies), and examined functionally between 18-48 h post transfection. The following receptor subunit cDNAs were used: nAChR-α3 (nicotinic acetylcholine receptor-α3; accession no. L31621), nAChR-α4 (accession no. L31620), nAChR-β2 (accession no. L31622), nAChR-β4 (accession no. U42976), 5-HT3R-A (5-HT3A receptor; accession no. M74425), NR1 (N-methyl-D-aspartate receptor 1; accession no. X63255), NR2A (accession no. X91561), and NR2B (accession no. M91562). The nAchR and NR clones were rat; the 5-HT3R-A clone was mouse. Co-transfection of enhanced green fluorescent protein (“EGFP”) (10% of total cDNA) provided a marker to identify transfected cells. Transfected cells were selected for EGFP expression and examined by voltage-clamp recording in the whole-cell configuration using an Axopatch 200B patch-clamp amplifier (Axon Instruments, Foster City, Calif.). Thin-walled borosilicate glass microelectrodes (TW150F, World Precision Instruments, Sarasota, Fla.) had resistances of 3-5 MΩ when filled with an internal solution containing (in mM): 135 CsCl, 10 CsF, 10 HEPES (N-[2-hydroxyethyl]piperazine-N′-[2-ethanesulfonic acid]), 5 EGTA (ethylene glycol-bis[β-aminoethyl ether]-N,N,N′,N′-tetraacetic acid), 1 MgCl2, 0.5 CaCl2, pH 7.2. Whole-cell capacitance and series resistance were recorded and adequately compensated using the available circuitry of the amplifier. Current responses were filtered at 1 kHz with an 8-pole Bessel filter (Cygnus Technologies, Delaware Water Gap, Pa.), digitized at 3 kHz, and stored on a Macintosh PowerPC-G3 computer using an ITC-16 interface (Instrutech, Great Neck, N.Y.) under control of the data acquisition and analysis program Synapse (Synergy Research, Gaithersburg, Md.). Cells were continuously superfused with extracellular solution containing (in mM): 150 NaCl, 3 KCl, 5 HEPES, 1 MgCl2, 1.8 CaCl2, 10 glucose, and 0.1 mg/ml phenol red, pH 7.3 (MgCl2 was omitted from all solutions used for the study of NMDA receptors). […] Control, agonist, and drug solutions were applied to individual cells by rapid perfusion. Solutions were driven by a syringe pump through a flowpipe having 4 inputs that converge at a single common output of approximately 100 μm diameter. Rapid switching between inputs was achieved using a set of upstream solenoid valves (Lee Co., Westbrook, Conn.) under computer control; the solution exchange rate was ˜5 ms as measured from liquid junction currents.
(§2) To study these, transfected HEK293 cells expressing NR1/2A or NR1/2B receptors were voltage-clamped to −70 mV and stimulated with 100 μM glutamate plus 10 μM glycine at 30 s intervals. […] In FIGS. 3A and 3B, open bars depict the timing of agonist application, filled bars depict the timing of co-application of 20 μM IBO or 20 μM 18MC, and inhibition was measured relative to control at the end of the drug application (indicated by arrows).
(In general: Patch clamp records ionic current or voltage across a cell membrane.)

For a further test, the target named is T2, NR1/2A receptors (Rattus norvegicus, UniProt P35439+Q00959).
T2 construct: expressed in transfected cells; host or cells: HEK293 (ATCC CRL1573), transient transfection
The test is described as follows: whole-cell patch-clamp of transfected HEK293 cells, NR1/2A, 100 μM glutamate plus 10 μM glycine. Type of test: cell-based. The protocol: as §1, §2

The target in another test is T3, 5-HT3A receptors (Mus musculus, UniProt P23979).
T3 construct: expressed in transfected cells; host or cells: HEK293 (ATCC CRL1573), transient transfection
T3 sequence (P23979 24-489): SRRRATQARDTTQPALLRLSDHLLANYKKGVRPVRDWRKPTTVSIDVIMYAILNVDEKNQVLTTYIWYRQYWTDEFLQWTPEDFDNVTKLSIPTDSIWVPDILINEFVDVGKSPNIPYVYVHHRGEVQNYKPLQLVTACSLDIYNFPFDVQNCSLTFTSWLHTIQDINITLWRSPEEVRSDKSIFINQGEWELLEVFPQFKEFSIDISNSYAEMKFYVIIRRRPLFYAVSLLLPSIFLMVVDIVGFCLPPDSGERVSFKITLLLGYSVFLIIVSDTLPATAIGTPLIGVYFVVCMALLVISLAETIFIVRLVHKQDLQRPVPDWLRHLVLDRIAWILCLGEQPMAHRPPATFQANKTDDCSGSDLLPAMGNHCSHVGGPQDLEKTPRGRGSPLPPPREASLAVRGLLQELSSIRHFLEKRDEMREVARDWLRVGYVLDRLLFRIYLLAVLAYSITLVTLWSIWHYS
The test is described as follows: whole-cell patch-clamp of transfected HEK293 cells, 5-HT3A, 100 μM serotonin. Type of test: cell-based. The protocol:
as §1
Transfected HEK293 cells expressing 5-HT3A receptors were voltage-clamped to −70 mV and stimulated with 100 μM serotonin at 30 s intervals. […] This is shown in FIG. 4, where open bars depict the timing of agonist application, filled bars depict the timing of co-application of 20 μM IBO or 20 μM 18MC, and inhibition was measured relative to control at the end of the drug application (indicated by arrows).

For test [2], the target named is T4, α3β4 nACh receptors (Rattus norvegicus, UniProt P04757+P12392).
T4 construct: expressed in transfected cells; host or cells: HEK293 (ATCC CRL1573), transient transfection
The test is described as follows: whole-cell patch-clamp of transfected HEK293 cells, ganglionic α3β4 nACh receptors, 1 mM ACh. Type of test: cell-based. The protocol: Human embryonic kidney 293 (HEK293) fibroblasts (ATCC CRL1573) were cultured in minimal essential medium supplemented with 10% fetal bovine serum and 2 mM glutamine (Life Technologies, Rockville, Md.). Cells were plated on poly-D-lysine-coated 35 mm nunc dishes, transfected by the LipofectaminePLUS method (Life Technologies), and examined functionally between 18-48 h post transfection. The following receptor subunit cDNAs were used: nAChR-α3 (nicotinic acetylcholine receptor-α3; accession no. L31621), nAChR-α4 (accession no. L31620), nAChR-β2 (accession no. L31622), nAChR-β4 (accession no. U42976), 5-HT3R-A (5-HT3A receptor; accession no. M74425), NR1 (N-methyl-D-aspartate receptor 1; accession no. X63255), NR2A (accession no. X91561), and NR2B (accession no. M91562). The nAchR and NR clones were rat; the 5-HT3R-A clone was mouse. Co-transfection of enhanced green fluorescent protein (“EGFP”) (10% of total cDNA) provided a marker to identify transfected cells. Transfected cells were selected for EGFP expression and examined by voltage-clamp recording in the whole-cell configuration using an Axopatch 200B patch-clamp amplifier (Axon Instruments, Foster City, Calif.). Thin-walled borosilicate glass microelectrodes (TW150F, World Precision Instruments, Sarasota, Fla.) had resistances of 3-5 MΩ when filled with an internal solution containing (in mM): 135 CsCl, 10 CsF, 10 HEPES (N-[2-hydroxyethyl]piperazine-N′-[2-ethanesulfonic acid]), 5 EGTA (ethylene glycol-bis[β-aminoethyl ether]-N,N,N′,N′-tetraacetic acid), 1 MgCl2, 0.5 CaCl2, pH 7.2. Whole-cell capacitance and series resistance were recorded and adequately compensated using the available circuitry of the amplifier. Current responses were filtered at 1 kHz with an 8-pole Bessel filter (Cygnus Technologies, Delaware Water Gap, Pa.), digitized at 3 kHz, and stored on a Macintosh PowerPC-G3 computer using an ITC-16 interface (Instrutech, Great Neck, N.Y.) under control of the data acquisition and analysis program Synapse (Synergy Research, Gaithersburg, Md.). […] Rapid switching between inputs was achieved using a set of upstream solenoid valves (Lee Co., Westbrook, Conn.) under computer control; the solution exchange rate was ˜5 ms as measured from liquid junction currents.
Transfected HEK293 cells expressing various receptor subunit cDNAs were examined by whole-cell patch-clamp recording with fast perfusion of agonist and drug solutions. […] In FIG. 1A, open bars depict the timing of ACh application; filled bars depict the timing of co-application of 20 μM IBO or 20 μM 18MC; and inhibition was measured relative to control at the end of the drug application (indicated by arrows). […]

Test [3] addresses T5, α3β4 nACh receptors (Rattus norvegicus, UniProt P09483+P12390).
T5 construct: expressed in transfected cells; host or cells: HEK293 (ATCC CRL1573), transient transfection
The test can be described thus: whole-cell patch-clamp of transfected HEK293 cells, neuronal nACh receptors, 300 μM ACh. The class given is cell-based. On the procedure: as §1
Transfected HEK293 cells expressing various receptor subunit cDNAs were examined by whole-cell patch-clamp recording with fast perfusion of agonist and drug solutions. […] Transfected HEK293 cells expressing α3β4 nACh receptors were voltage-clamped to −70 mV and stimulated with 1 mM ACh at 30 s intervals. […] In FIG. 1A, open bars depict the timing of ACh application; filled bars depict the timing of co-application of 20 μM IBO or 20 μM 18MC; and inhibition was measured relative to control at the end of the drug application (indicated by arrows). […] The data presented in FIG. 1B are mean±SEM for 3-14 cells per point, and curve fits are given for the logistic equation: I=Imax/(1+([drug]/IC50)). […] In this case, transfected HEK293 cells expressing α3β4 nACh receptors were voltage-clamped to −70 mV and stimulated with 300 μM ACh at 30 s intervals.

T1 sequence (Q00960 27-1482, other chains not shown): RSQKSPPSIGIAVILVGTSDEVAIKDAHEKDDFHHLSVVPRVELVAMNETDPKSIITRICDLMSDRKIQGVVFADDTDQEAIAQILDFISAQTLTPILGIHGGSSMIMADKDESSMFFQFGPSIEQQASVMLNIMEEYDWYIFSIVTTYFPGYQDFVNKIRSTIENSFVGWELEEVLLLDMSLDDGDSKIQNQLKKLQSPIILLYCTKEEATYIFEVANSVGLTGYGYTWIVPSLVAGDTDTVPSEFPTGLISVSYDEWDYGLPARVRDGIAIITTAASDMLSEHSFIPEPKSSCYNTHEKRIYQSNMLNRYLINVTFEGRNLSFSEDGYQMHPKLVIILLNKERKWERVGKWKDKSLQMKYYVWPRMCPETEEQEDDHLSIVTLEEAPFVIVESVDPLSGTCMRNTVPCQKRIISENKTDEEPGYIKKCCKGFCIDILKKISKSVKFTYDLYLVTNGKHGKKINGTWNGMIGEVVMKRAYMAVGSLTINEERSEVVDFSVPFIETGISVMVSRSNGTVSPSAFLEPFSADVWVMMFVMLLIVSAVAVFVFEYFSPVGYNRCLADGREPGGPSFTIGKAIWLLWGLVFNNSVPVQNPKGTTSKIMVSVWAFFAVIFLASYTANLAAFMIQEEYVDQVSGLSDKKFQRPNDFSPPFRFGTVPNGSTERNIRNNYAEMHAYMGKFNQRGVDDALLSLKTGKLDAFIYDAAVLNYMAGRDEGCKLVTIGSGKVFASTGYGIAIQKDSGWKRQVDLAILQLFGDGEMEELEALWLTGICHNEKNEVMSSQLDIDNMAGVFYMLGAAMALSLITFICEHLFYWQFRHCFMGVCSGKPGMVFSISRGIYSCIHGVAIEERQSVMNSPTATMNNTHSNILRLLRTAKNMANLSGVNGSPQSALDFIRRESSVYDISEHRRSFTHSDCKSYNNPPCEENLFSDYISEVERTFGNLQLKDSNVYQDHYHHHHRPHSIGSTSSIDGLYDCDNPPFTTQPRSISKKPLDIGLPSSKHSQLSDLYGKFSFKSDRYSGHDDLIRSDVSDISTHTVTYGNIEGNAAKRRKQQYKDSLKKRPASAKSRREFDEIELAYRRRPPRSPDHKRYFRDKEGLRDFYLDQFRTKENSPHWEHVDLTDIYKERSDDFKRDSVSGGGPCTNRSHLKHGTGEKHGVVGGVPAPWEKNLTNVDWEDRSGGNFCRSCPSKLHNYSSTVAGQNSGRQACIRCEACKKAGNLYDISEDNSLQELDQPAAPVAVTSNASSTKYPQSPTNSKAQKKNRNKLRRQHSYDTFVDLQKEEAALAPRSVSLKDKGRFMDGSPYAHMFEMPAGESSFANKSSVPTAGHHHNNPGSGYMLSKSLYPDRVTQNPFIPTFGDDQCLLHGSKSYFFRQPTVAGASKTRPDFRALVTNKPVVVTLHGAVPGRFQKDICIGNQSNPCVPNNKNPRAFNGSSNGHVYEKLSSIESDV
T2 sequence (Q00959 20-1464 limits assumed, other chains not shown): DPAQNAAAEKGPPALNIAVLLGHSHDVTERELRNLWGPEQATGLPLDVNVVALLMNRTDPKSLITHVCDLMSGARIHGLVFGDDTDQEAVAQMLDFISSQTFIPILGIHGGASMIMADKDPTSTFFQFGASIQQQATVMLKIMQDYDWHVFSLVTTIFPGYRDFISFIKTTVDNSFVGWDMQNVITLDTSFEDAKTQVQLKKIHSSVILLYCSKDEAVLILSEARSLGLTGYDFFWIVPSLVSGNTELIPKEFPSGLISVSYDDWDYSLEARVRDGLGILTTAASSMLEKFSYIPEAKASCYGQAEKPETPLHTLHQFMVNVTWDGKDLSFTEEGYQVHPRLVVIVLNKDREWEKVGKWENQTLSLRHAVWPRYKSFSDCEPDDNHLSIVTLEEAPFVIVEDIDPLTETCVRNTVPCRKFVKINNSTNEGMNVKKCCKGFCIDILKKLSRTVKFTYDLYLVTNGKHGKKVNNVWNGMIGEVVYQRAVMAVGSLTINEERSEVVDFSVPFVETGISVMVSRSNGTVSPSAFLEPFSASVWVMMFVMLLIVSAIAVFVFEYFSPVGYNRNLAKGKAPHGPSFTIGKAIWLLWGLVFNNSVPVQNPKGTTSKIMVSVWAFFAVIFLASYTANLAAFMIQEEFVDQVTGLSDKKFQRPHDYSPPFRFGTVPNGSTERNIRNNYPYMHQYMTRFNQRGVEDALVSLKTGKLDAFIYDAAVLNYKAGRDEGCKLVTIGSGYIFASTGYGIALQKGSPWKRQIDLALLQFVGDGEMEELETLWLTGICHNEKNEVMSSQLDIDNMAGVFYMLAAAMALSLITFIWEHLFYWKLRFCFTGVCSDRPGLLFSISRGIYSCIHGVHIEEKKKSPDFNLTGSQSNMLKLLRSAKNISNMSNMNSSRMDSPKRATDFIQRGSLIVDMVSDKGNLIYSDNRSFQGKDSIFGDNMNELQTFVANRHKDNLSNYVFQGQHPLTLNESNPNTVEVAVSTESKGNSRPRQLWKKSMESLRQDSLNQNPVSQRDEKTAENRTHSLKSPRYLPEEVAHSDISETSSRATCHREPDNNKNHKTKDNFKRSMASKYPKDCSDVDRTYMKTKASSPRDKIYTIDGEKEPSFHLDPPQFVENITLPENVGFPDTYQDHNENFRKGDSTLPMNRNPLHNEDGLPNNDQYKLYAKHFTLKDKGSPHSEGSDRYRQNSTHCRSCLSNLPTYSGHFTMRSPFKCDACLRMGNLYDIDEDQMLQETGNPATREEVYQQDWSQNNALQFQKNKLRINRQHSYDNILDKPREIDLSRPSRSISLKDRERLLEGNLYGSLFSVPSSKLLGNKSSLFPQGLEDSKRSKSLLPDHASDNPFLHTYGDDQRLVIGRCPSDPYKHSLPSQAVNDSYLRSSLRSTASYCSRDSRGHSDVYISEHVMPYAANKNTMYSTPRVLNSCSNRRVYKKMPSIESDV
T5 sequence (P09483 31-630): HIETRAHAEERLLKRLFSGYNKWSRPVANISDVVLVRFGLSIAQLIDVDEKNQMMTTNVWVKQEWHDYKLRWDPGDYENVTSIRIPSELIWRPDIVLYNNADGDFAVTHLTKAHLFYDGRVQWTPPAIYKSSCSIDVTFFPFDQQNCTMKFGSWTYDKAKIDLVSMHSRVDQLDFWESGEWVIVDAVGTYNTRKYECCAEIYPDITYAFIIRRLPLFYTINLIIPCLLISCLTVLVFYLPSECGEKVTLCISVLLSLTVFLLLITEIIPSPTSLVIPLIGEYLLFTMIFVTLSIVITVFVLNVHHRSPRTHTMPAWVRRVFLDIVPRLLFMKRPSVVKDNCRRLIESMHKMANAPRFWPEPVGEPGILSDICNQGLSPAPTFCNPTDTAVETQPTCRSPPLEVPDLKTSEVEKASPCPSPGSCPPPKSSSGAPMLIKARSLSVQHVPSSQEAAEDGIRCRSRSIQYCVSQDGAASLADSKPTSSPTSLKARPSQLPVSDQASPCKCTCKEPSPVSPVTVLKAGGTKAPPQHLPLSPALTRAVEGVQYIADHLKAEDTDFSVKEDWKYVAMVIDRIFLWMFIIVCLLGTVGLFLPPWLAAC
T5 sequence (P12390 25-500): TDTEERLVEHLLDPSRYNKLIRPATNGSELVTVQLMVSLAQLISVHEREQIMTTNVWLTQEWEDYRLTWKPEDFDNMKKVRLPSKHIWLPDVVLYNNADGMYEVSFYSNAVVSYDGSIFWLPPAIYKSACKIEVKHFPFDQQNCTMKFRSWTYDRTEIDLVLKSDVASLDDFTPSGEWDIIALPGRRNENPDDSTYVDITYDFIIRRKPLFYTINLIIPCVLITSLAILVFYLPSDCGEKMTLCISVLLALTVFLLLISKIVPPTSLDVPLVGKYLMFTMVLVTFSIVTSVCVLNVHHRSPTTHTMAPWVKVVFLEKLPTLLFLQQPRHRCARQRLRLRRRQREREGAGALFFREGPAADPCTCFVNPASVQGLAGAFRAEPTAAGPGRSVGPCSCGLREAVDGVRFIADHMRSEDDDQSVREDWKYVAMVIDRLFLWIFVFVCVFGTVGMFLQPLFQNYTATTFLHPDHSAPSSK
T4 sequence (P04757 26-499): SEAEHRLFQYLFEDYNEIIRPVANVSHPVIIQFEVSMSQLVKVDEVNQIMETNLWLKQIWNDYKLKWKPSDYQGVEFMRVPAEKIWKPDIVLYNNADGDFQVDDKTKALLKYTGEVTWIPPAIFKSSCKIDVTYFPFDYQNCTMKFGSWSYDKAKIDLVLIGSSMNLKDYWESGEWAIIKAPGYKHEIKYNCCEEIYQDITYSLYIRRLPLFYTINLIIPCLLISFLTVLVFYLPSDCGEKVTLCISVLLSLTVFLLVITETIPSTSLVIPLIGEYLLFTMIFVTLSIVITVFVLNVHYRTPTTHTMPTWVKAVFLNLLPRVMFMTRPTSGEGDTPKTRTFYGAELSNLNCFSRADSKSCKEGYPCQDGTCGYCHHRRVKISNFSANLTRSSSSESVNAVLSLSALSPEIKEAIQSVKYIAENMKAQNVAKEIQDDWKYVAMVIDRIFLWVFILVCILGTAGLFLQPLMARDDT
T4 sequence (P12392 21-495): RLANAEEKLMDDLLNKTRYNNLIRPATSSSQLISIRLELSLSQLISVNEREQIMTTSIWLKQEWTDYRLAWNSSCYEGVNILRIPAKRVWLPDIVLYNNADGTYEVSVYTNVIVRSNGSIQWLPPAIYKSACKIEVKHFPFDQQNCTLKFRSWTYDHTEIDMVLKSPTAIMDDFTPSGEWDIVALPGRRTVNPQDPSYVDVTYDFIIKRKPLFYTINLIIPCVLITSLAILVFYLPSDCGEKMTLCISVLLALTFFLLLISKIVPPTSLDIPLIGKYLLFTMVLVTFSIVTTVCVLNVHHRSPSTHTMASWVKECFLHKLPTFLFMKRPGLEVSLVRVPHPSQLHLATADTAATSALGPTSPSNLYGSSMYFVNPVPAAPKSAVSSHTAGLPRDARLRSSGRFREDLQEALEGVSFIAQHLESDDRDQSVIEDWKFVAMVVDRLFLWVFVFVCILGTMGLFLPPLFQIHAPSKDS

The term IC50 denotes the concentration needed to halve the response being measured. Turning to ibogaine, the IC50 in test [1] is 3 to 5 µM. Moreover, the “inhibition of agonist-evoked response” value is reported as 82±3% on NR1/2B receptors (10 μM drug, co-application) and 51±9% on NR1/2A receptors (10 μM drug, co-application). Also, the “response to drug applied alone (agonist activity)” value on NR1/2B receptors (20 μM drug alone) is “did not produce any response”; at NR1/2A receptors (20 μM drug alone), “did not produce any response”; at 5-HT3A receptors (20 μM drug alone) it was “did not produce any response”; at α3β4 nACh receptors [2] (20 μM drug alone, -70 mV) it was “did not produce any response”; at α3β4 nACh receptors [3] (20 μM drug alone, -70 mV) it was “did not produce any response”. The “reduction of agonist-evoked response” value at NR1/2B receptors (20 μM drug, co-application) was found to be 95±2%; at NR1/2A receptors (20 μM drug, co-application), 98±3%. The “inhibition of serotonin-evoked responses” value on 5-HT3A receptors (20 μM drug with 100 μM serotonin, FIG. 4) came out at 53±3%. Also, at α3β4 nACh receptors [2] (20 μM drug with 1 mM ACh, N=15, FIG. 1A), the “inhibition of ACh-evoked responses on co-application” value was “nearly abolished”. The “inhibition of ACh-evoked response” value at α3β4 nACh receptors [3] (5 μM drug with 300 μM ACh) amounted to 61±4%; on α3β4 nACh receptors [3] (20 μM drug with 300 μM ACh, FIG. 2), 93±3%.
